Assay results taken from patent US20140141456A1, “PAPP-A2 AS A MARKER FOR MONITORING, PREDICTING AND DIAGNOSING PREECLAMPSIA” (Ansh Labs, LLC, priority 2012, published 2014).

Tests used:
PAPP-A2 = PAPP-A2 (Homo sapiens, UniProt Q9BXP8)
Method: Medium from 293T cells transfected with empty vector (lane 1), cDNA encoding PAPP-A2 with an inactivating E734Q mutation (pPA2-KO) (lane 2), or cDNA encoding wild-type PAPP-A2 (pPA2) (lanes 3-6) was incubated with C-terminally c-myc tagged rIGFBP-5. Proteolytic activity was assessed by Western blotting using anti-c-myc. ‘i’ denotes intact rIGFBP-5; ‘c’ denotes the detectable C-terminal c-myc tagged cleavage product.
Briefly, recombinant IGFBP-5 as contained in 5 microL cell culture medium was incubated with culture supernatants (10 microL) from cells transfected with pPA2, pPA2-KO, or empty expression vectors (see U.S. Pat. No. 7,083,940). Phosphate buffered saline was added to a final volume of 50 microL. After incubation at 37 degrees Celsius for 12 hours, 15 microL of the reaction mixture was separated by reducing 16% SDS-PAGE, blotted onto a PVDF membrane, and the C-terminal cleavage product was detected with monoclonal anti-c-myc (clone 9E19, ATTC) using peroxidase-conjugated secondary antibodies (P260, DAKO), and enhanced chemiluminescence (ECL, Amersham).

rIGFBP-5 = test: Proteolytic activity of PAPP-A2 against IGFBP-5, Western blotting using anti-c-myc; format: biochemical, human; details: absence of inhibitors; medium from 293T cells transfected with pPA2
IGFBP-3 = test: Activity of PAPP-A2 against IGFBPs, ligand blotting using radiolabeled IGF-II; format: biochemical; details: medium from 293T cells transfected with pPA2
Method: (§1) Ligand blotting (Conover et al., 1993, J Clin Invest 91, 1129-37) with radiolabeled IGF-II (Bachem) was used to assay for activity against IGFBP-1 (from HepG2 conditioned medium), rIGFBP-2 (GroPep), rIGFBP-3 (gift of D. Powell), rIGFBP-4 (Austral), rIGFBP-5 (gift of D. Andress), and rIGFBP-6 (Austral). […] IGFBP-3 was partially degraded (FIG. 10). This cleavage was independent of the presence of IGF. Experiments were carried out with media from cells transfected with pPA2 or empty vector.
(§2) Medium from 293T cells transfected with empty vector (−), or cDNA encoding PAPP-A2 (pPA2) (+) was incubated with each of the six IGFBPs (BP1-BP6), and the activity was assessed by ligand blotting using radiolabeled IGF-II.

IGFBP-5 = test: as above; format: biochemical; details: medium from 293T cells transfected with pPA2
Method: as §1, §2

PAPP-A2, sequence (Q9BXP8 234-1791 limits assumed): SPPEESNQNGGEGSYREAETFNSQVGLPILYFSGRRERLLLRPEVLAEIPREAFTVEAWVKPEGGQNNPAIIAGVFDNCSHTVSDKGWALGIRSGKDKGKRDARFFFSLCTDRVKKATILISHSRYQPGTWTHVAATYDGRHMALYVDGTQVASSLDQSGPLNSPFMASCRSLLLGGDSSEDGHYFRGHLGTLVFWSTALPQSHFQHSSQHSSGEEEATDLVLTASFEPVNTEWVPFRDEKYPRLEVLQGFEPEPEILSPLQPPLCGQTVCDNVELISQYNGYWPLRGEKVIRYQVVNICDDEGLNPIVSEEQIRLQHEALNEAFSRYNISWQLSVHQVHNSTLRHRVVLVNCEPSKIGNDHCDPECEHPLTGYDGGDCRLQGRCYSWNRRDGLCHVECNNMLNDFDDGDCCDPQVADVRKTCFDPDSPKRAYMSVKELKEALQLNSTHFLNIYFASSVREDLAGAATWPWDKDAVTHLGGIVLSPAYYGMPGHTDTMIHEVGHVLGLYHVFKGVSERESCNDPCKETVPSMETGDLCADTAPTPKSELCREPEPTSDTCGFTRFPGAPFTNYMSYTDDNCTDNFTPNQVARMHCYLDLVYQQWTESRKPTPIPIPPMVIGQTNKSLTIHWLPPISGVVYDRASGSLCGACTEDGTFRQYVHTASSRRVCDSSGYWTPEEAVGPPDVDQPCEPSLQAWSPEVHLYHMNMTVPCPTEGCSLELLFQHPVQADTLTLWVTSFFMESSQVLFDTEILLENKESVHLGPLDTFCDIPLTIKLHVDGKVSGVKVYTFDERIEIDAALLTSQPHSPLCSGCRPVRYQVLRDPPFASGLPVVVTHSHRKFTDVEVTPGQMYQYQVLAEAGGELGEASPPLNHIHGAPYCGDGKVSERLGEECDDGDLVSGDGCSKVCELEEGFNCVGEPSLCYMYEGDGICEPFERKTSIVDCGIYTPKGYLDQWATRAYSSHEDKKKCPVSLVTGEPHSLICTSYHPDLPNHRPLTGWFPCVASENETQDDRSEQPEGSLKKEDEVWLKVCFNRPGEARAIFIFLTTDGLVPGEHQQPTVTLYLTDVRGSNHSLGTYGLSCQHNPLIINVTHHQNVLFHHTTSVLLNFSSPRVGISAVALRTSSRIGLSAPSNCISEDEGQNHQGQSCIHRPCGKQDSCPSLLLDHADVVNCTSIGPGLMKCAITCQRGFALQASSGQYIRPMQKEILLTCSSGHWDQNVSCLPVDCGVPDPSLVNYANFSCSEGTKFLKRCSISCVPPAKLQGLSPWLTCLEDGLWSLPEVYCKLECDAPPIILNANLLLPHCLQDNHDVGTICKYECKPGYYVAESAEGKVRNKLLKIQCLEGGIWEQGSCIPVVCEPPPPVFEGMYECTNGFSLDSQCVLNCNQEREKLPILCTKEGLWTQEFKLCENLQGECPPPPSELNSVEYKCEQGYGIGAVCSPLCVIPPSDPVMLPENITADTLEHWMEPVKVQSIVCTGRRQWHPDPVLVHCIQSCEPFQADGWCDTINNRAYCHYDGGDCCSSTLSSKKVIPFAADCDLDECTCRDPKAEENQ

Row | PAPP-A2 activity (degradation of rIGFBP-5) (PAPP-A2) | Compound | Degradation of rIGFBP-5 (rIGFBP-5) | Degradation of IGFBP-3 (IGFBP-3) | Cleavage of IGFBP-5 (IGFBP-5)
1 | not affected | O=c1oc(Cl)c(Cl)c2ccccc12 [3,4-DCI] | – | – | –
2 | abolished | c1cnc2c(c1)ccc1cccnc12 [phenanthroline] | – | – | –
3 | – | PAPP-A2: recombinant wild-type PAPP-A2 metalloproteinase in medium from 293T cells transfected with cDNA (pPA2) | degraded all rIGFBP-5 | Partial degradation | Complete cleavage
